Assay results published in ChEMBL document CHEMBL1155614, “CR377, a new pentaketide antifungal agent isolated from an endophytic fungus” (2000).
Calls of active or inactive are those of the source. No cut-off for these calls is given here.

What was measured:
Candida albicans [1] = assay: Antimicrobial activity against Candida albicans wisconsin at 30 ug by agar diffusion method; assay type: functional
Candida albicans [2] = assay: Antimicrobial activity against Candida albicans 109 at 30 ug by agar diffusion method; assay type: functional
Saccharomyces cerevisiae = assay: Antimicrobial activity against Saccharomyces cerevisiae at 30 ug by agar diffusion method; assay type: functional, organism-based

C=C1C(O)=C(C(=O)C(C)CC)C(=O)OC1C (stereo unspecified)
zone of inhibition at 30 µg/disc (Candida albicans [1]; read-out: IZ): 20 mm
zone of inhibition at 30 µg/disc (Candida albicans [2]; read-out: IZ): 24 mm
Activity (Saccharomyces cerevisiae): inactive

NYSTATIN
inhibition zone (IZ) (Candida albicans [1]): 19 mm
inhibition zone (IZ) (Candida albicans [2]): 22 mm
inhibition zone (IZ) (Saccharomyces cerevisiae): 21 mm
